From patent publication US9161939B2, “Pyrrolo[2,3-d]pyrimidine compounds” (Zoetis LLC, priority 2008, dated 2015)

How the values were obtained:
[1] = biological target: Recombinant JAK-1 (GST-JAK-1 (852-1142)) (Homo sapiens (Human), UniProt P23458); test: JAK Enzymatic Assay (peptide mobility shift), JAK-1; format: biochemical; settings: ATP 40 micromolar, IRS-1 peptide, 240 minutes
Procedure: (§4) Materials: Recombinant JAK-2 (Catalog Number PV4210) and JAK-3 (Catalog Number PV3855) were purchased from (Invitrogen Corporation, Madison, Wis.). Recombinant JAK-1 (GST-JAK-1 (852-1142)) and Tyk-2 (GST-Tyk2 (870-1187, C1187S)) used in this study were expressed and purified at Pfizer Laboratories. Adenosine 5′-triphosphate (ATP) was obtained from Sigma Chemical Company, St. Louis, Mo. […] Coating Reagent 3 was purchased from (Caliper Life Sciences, Hopkinton, Mass.).
(§5) Reactions were carried out in a 384-well plate (Matrical MP-101) in a 10 microliter total volume. Reaction mixtures contained 20 mM HEPES, pH 7.4, 10 mM magnesium chloride, 0.01% bovine serum albumin (BSA), 0.0005% Tween-20, ATP (4 micromolar for JAK-2 and JAK-3, 40 micromolar for JAK-1 and 7 micromolar for Tyk-2)), 2% DMSO and 1 micromolar peptide substrate (JAKtide for JAK-2 and JAK-3 or IRS-1 peptide for JAK-1 and Tyk-2). Compounds were diluted serially in 100% dimethyl sulfoxide and tested in an 11 point dose response in duplicate or quadruplicate (200 nl of compound/DMSO was added per 10 microliter reaction). […] Data was analyzed using Hits Well Analyzer Software from (Caliper Life Sciences) to obtain the amount of product formed.
(§6) Data was then imported into an internal application where each data point was expressed as % inhibition based on uninhibited and no enzyme controls. […]

[2] = biological target: Recombinant JAK-3 (Homo sapiens (Human), UniProt P52333); test: JAK Enzymatic Assay (peptide mobility shift), JAK-3; format: biochemical; settings: ATP 4 micromolar, JAKtide, 90 minutes
Chain of Recombinant JAK-3 (P52333 781-1124): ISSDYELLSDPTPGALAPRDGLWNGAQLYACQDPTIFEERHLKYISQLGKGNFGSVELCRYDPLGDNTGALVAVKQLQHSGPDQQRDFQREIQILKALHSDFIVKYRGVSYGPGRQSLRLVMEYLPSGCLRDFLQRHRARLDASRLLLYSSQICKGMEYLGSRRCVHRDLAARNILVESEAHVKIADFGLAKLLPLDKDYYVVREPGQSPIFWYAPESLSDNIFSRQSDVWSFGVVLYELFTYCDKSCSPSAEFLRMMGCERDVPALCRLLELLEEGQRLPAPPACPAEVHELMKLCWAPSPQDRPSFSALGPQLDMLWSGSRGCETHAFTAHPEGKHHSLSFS
Procedure: as §4, §5, §6

[3] = tested on: T-cell proliferation in canine whole blood (ConA + canine IL-2); test: Canine In Vitro T-Cell Proliferation Assay; format: cell-based; settings: Canis lupus familiaris, tritiated thymidine
Procedure: Methods: Canine whole blood was collected in sodium heparin tubes from 29 beagle dogs and 23 mixed breed dogs. Whole blood (20 μL) was plated in 96-well plates (Costar 3598) with 180 μL of medium (RPMI 1640, Gibco #21870-076, with 1% heat inactivated fetal bovine serum, Gibco #10082-39, 292 μg/ml L-glutamine, Gibco #250030-081, 100 u/ml penicillin and 100 μg streptomycin per ml, Gibco #15140-122) containing vehicle control or test compound (0.001 to 10 μM), concanavalin A (ConA; 1 μg/ml, Sigma C5275), and canine interleukin-2 (IL-2; 50 ng/ml, R&D Systems 1815-CL/CF). Wells containing whole blood, medium with vehicle control and no ConA or IL-2 were used as background controls. Plates were incubated at 37° C. for 48 hours. Tritiated thymidine, 0.4 μCi/well (Perkin Elmer, Net027A-005MC), was added for 20 additional hours. Plates were frozen and then thawed, washed and filtered using a Brandel MLR-96 cell harvester and prewet filter mats (Wallac 1205-401, Perkin Elmer). Filters were dried at 60° C. for one hour (Precision 16EG convection oven) and placed into filter sample bags (Wallac 1205-411, Perkin Elmer) with 10 mL of scintillant (Wallac 1205-440, Perkin Elmer). Sealed filters were counted on a LKB Wallac 1205 Betaplate liquid scintillation counter. Data were collected via Gterm Betaplate program v1.1 (Wallac copyright 1989-1990) and transformed into percent inhibition, calculated using the following formula: […]

[4] = biological target: Recombinant JAK-2 (Homo sapiens (Human), UniProt O60674); settings: read-out: JAK-2 IC50; ATP 4 micromolar, JAKtide, 150 minutes
Chain of Recombinant JAK-2 (O60674 808-1132): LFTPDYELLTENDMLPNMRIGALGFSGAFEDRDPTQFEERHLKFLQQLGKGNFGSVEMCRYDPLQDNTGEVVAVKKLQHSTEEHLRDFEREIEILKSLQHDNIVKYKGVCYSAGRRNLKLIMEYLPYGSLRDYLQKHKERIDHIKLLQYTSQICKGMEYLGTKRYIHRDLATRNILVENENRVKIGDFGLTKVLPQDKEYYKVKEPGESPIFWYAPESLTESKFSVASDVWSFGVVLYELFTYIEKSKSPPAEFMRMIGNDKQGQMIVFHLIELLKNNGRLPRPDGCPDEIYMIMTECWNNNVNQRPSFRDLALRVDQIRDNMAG
Procedure: as §4, §5, §6

[5] = tested on: flea-associated pruritus and dermatitis in flea allergic dogs; test: Reducing Flea-Associated Pruritus and Dermatitis Assay; format: in vivo; settings: for pruritus as compared to placebo (seconds of pruritus per 4 hour recording): 10% level of significance
Procedure: Twenty eight male and female dogs of mixed breeds ranging in weight from 5-35 kg and greater than one year of age were infested with approximately 100 unfed adult cat fleas (Ctenocephalides felis) 14 days prior to the start of dosing and reinfested with 30 fleas per dog every 4 days throughout the study. Seven days before dosing, twenty four dogs were randomized into three different treatment groups, placebo, 0.5 mg/kg or 0.25 mg/kg of the compound of Example 1b, based on visual analog scale (VAS) scores for skin lesions. Treatments were given orally twice a day for 28 days, and pruritic behavior as well as erythema and skin lesions were was assessed during the study. Pruritic behavior was recorded by placing dogs into pens with video recording capability, and recording their activity over 4 hours. Pruritic activity was quantitated by determining how many seconds the dogs spent scratching. Skin lesions were recorded by image capture of abdominal, inguinal region and the severity ranked according to a visual analog scale (VAS).
Video captured elapsed time of pruritic behavior was analyzed using a mixed linear model for repeated measures. The model included fixed effects of treatment and day of study and the interaction of treatment and day of study. Random effects included block, the interaction of block and treatment and error. Baseline data for pruritic behavior (day −1) were used as covariate in the analysis of pruritic behavior. Least squares means were used as estimates of treatment means. Standard errors of least squares means were estimated and 90% confidence intervals were constructed. Geometric means were computed from the least squares means for log-transformed data. A priori contrasts were used to assess treatment. Treatment differences were assessed at the 10% level of significance (P≦0.10).

[6] = tested on: MYA-1 feline T-lymphoblast cell line; test: Cell Proliferation Inhibitory Assay, MYA-1; format: cell-based; settings: Felis catus; Feline MYA-1 lymphoid line (IL-2 dependent); MTS
Procedure: (§1) Feline Cell Lines The MYA-1 and FETJ are feline T-lymphoblast cell lines obtained from ATCC (Manassas, Va.). These cells were cultured in RPMI 1640 complete media supplemented with 10% FBS at 37° C. in a humidified incubator with 5% CO2.
(§2) Cells cultured in medium described above were plated in 96-well Costar plates (Corning) at a density of 1×10^3 cells/well (feline cell lines) or 2×10^5 cells/well (lymph node cells) and exposed to various concentrations of test compounds for up to 5 days at 37° C. in a humidified incubator with 5% CO2. Effects on proliferation were determined using the CellTiter 96® AQueous Non-Radioactive Cell Proliferation Assay (Promega) according to manufacturer's instructions. In general, proliferation was indirectly measured using a soluble tetrazolium salt (MTS) and an electron coupling agent. MTS bioreduction into a formazan product soluble in tissue culture medium was monitored by absorbance at 490 nm on a Spectramax plate reader using Softmax Pro 4.6 software (Molecular Devices).

[7] = tested on: FETJ feline T-lymphoblast cell line; test: Cell Proliferation Inhibitory Assay, FETJ; format: cell-based; settings: Felis catus; Feline FETj lymphoid line (IL-2 independent); MTS
Procedure: as §1, §2

[8] = tested on: MSU LN 8 De novo T-cell lymphoma lymph node cells; test: Cell Proliferation Inhibitory Assay, ex vivo canine lymphoma nodal tissue MSU LN 8; format: cell-based; settings: Canis lupus familiaris, Canine MSU LN 8, De novo T-cell lymphoma
Procedure: (§3) Malignant lymph nodes were excised by veterinary staff at Michigan State University (MSU) Veterinary College, placed into transport media (Advanced RPMI 1640 complete medium supplemented with 10% Fetal Bovine Serum (FBS), 100 U/mL penicillin, 100 ug/mL streptomycin and 0.25 ug/mL Amphotercin B (Invitrogen/Gibco®). Nodes were processed within 24 hours of removal by mincing into tiny pieces and passing through a tissue sieve. Cell suspensions were spun at 200×g, supernatant was removed, and the cell pellet was resuspended in NH4Cl for 10 minutes at room temperature. The cell suspension was pelleted by centrifugation; the NH4Cl was removed and washed once with Hanks Balanced Salt Solution (HBSS), followed by re-suspension in Proliferation Medium (Advanced RPMI complete, 1% FBS, […] 2-Mercaptoethanol, 100 U/mL penicillin, 100 ug/mL streptomycin and 0.25 ug/mL Amphotercin B). The cell suspension was then passed through a 100 μm nylon cell strainer (BD-Falcon) and counted using a hemacytometer. Cells were cultured in either Proliferation Medium alone, Proliferation Medium supplemented with 0.005% Pansorbin® (Heat inactivated, formalin-fixed Staphylococcus Aureus cells (SAC), Calbiochem), and 10 ng/mL canine IL-2 (R&D Systems), or Proliferation Medium supplemented with 125 ng/mL concavalin A (Sigma) and 125 ng/mL lipopolysaccarride (LPS; Calbiochem). […]

[9] = tested on: MSU LN 9 De novo B-cell lymphoma lymph node cells; test: Cell Proliferation Inhibitory Assay, ex vivo canine lymphoma nodal tissue MSU LN 9; format: cell-based; settings: Canis lupus familiaris, Canine MSU LN 9, De novo B-cell lymphoma
Procedure: as §3

[10] = tested on: MSU LN 10 Chemotherapy resistant B-cell lymphoma lymph node cells; test: Cell Proliferation Inhibitory Assay, ex vivo canine lymphoma nodal tissue MSU LN 10; format: cell-based; settings: Canis lupus familiaris; Canine MSU LN 10, Chemotherapy resistant B-cell lymphoma; LPS + ConA
Procedure: as §3

[11] = tested on: MSU LN 11 De novo B-cell lymphoma lymph node cells; test: Cell Proliferation Inhibitory Assay, ex vivo canine lymphoma nodal tissue MSU LN 11; format: cell-based; settings: Canis lupus familiaris; Canine MSU LN 11, De novo B-cell lymphoma; LPS + ConA
Procedure: as §3

Chain of Recombinant JAK-1 (GST-JAK-1 (852-1142)) (P23458 852-1142): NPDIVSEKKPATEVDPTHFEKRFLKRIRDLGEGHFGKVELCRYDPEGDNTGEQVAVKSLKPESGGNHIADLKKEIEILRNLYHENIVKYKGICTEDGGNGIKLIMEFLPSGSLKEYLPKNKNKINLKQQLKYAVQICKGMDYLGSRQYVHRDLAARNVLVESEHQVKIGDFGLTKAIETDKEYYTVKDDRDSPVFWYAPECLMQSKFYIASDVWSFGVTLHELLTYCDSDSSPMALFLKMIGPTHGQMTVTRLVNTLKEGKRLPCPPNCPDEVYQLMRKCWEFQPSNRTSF

CN(c1ncnc2[nH]ccc12)[C@H]1CC[C@H](CS(=O)(=O)NC2CCC2)CC1 [Example 2, N-cyclobutyl-1-{trans-4-[methyl(7H-pyrrolo[2,3-d]pyrimidin-4-yl)amino]cyclohexyl}methanesulfonamide]
IC50 [1]: 45 nM | IC50 [2]: 742 nM | IC50 ([3]; whole blood from beagles): 410 nM | IC50 [4]: 101 nM

CCNS(=O)(=O)C[C@H]1CC[C@H](N(C)c2ncnc3[nH]ccc23)CC1 [Example 3, N-ethyl-1-{trans-4-[methyl(7H-pyrrolo[2,3-d]pyrimidin-4-yl)amino]cyclohexyl}methanesulfonamide]
IC50 ([3]; whole blood from beagles): 83 nM

CNS(=O)(=O)C[C@H]1CC[C@H](N(C)c2ncnc3[nH]ccc23)CC1.O=C(O)/C=C\C(=O)O [Example 1b, N-methyl-1-{trans-4-[methyl(7H-pyrrolo[2,3-d]pyrimidin-4-yl)amino]cyclohexyl}methanesulfonamide maleic acid salt]
pruritus as compared to placebo (seconds of pruritus per 4 hour recording) ([5]; 0.25 mg/kg orally twice a day, days 1, 4 and 12): Significant reductions | Lesions and erythema (VAS scores) ([5]; 0.5 mg/kg orally twice a day for 28 days, flea allergic dogs, Day 27 VAS): significantly reduced | pruritus as compared to placebo (seconds of pruritus per 4 hour recording) ([5]; 0.5 mg/kg orally twice a day, days 1 and 20): Significant reductions

CNS(=O)(=O)C[C@H]1CC[C@H](N(C)c2ncnc3[nH]ccc23)CC1 [Example 1a, N-methyl-1-{trans-4-[methyl(7H-pyrrolo[2,3-d]pyrimidin-4-yl)amino]cyclohexyl}methanesulfonamide]
IC50 [1]: 9.53 nM | IC50 [2]: 95.1 nM | IC50 ([3]; whole blood from beagles): 66.3 nM | IC50 ([3]; whole blood from mixed breed dogs): 138 nM | IC50 [6]: 122 nM | IC50 [7]: > 1000 nM | IC50 ([8]; LPS + ConA): 357 nM | IC50 ([8]; SAC + IL-2): 38 nM | IC50 ([9]; LPS + ConA): 147 nM | IC50 ([9]; SAC + IL-2): 100 nM | IC50 [10]: 687 nM | IC50 [11]: 64 nM | IC50 [4]: 17.5 nM
